For test [1] the following is noted: ob/ob and db/db mice, 8 day AICAR administration; cited from earlier work.
Test [2] has as its target T1, AMPK protein (recombinant α1β1γ2) (Homo sapiens, UniProt Q13131+Q9Y478).
T1 construct: made in house; host or cells: E. coli
Put plainly: AMPK enzymatic activity (Delfia, AMARA peptide substrate). The following applies: compound 30 μM vs AMP 30 μM; 125 μM ATP; ratio 90% or higher = direct activator. In kind it is biochemical. A digest of the protocol:
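Human α1β1γ2 AMPK expressed in E. coli, reactivated in vitro by LKB1, assayed in 50 mM Hepes pH 7.4 with 125 μM ATP and AMARA peptide for 30 min at room temperature; phosphorylation detected by Delfia anti-phosphoserine antibody. Activity = % of basal control at 30 μM compound relative to that of 30 μM AMP.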

The subject of a further test is H-2 Kb cells. Put plainly: Glucose uptake in H-2 Kb cells (in vitro cellular test). In kind it is cell-based, mouse. The following applies: H-2 Kb cells differentiated in muscle, 4 hours incubation, 2-deoxy-D-[1,2 3H] glucose uptake 10 min. In outline:
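H-2 Kb tsA58 mouse cells were differentiated to muscle at 37° C without interferon-γ for 3 days, then exposed to compound for 4 h in 1 g/l glucose DMEM. Uptake of 3H-2-deoxyglucose over 10 min was measured by scintillation. Activity was taken as the compound concentration matching or exceeding uptake with insulin (170 nM), scored ≦10 or >10 micro Molar.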

Data on 16 compounds can be found in patent US8563729B2, “Thienopyridone derivatives as AMP-activated protein kinase (AMPK) activators” (Merck Patent GmbH, priority 2008, dated 2013).

Structures are written as SMILES.

T1 sequence (Q13131 whole entry): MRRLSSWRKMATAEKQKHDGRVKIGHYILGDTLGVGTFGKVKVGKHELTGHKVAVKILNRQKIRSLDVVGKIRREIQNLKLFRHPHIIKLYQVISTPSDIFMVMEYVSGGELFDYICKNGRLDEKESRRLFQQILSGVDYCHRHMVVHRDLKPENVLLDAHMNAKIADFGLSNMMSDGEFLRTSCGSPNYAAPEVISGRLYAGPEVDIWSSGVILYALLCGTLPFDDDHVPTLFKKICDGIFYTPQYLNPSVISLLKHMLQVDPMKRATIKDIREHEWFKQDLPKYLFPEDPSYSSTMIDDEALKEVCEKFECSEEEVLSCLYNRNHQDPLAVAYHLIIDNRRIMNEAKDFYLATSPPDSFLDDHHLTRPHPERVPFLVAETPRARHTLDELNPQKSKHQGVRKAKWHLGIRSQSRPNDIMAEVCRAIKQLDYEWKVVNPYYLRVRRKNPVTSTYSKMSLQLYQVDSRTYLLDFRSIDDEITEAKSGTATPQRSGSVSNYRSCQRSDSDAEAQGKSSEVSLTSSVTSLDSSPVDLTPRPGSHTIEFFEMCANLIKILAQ
T1 sequence (Q9Y478 whole entry): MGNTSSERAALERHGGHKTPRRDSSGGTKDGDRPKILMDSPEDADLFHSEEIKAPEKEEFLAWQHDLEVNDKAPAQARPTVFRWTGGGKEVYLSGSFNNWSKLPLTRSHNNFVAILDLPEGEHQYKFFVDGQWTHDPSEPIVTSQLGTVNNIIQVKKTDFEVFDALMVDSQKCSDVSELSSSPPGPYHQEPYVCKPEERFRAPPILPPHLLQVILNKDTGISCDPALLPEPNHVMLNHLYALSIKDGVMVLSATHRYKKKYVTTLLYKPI
T1 sequence (Q9UGJ0 whole entry partner): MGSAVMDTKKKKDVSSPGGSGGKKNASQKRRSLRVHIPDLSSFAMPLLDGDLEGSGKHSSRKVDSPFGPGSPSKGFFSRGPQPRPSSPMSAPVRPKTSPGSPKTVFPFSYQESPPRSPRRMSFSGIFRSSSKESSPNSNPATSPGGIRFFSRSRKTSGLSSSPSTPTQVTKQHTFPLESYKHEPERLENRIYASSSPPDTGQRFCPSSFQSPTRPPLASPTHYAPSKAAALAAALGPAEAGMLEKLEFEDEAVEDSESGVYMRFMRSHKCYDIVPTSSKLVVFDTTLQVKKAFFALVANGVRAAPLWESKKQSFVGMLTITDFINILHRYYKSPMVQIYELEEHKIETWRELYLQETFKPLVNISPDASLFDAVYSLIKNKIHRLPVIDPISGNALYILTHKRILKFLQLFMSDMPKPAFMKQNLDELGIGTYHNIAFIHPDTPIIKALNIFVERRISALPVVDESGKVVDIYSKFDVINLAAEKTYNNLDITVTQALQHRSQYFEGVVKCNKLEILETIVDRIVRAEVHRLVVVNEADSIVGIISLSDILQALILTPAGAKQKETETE

Regarding `NC(=O)c1ncn([C@@H]2O[C@H](CO)[C@@H](O)[C@H]2O)c1N` [AICAR], in test [1], the “reduction of blood glucose” value is listed as 35%.
In the case of `O=c1[nH]c2sc(Cl)c(-c3ccccc3)c2c(O)c1-c1cccc(F)c1` [Compound 175], the “activity: Ratio between the % of control (basal activity) of compound of formula (I) at 30 μM and the % of control (basal activity) of AMP at 30 μM” value (shortened to “activity: Ratio between the % of control”) in test [2] came to 252%. In addition, the “Activity (table III): Concentration of compound (I) for a glucose uptake equal or higher to glucose uptake induced by insulin (170 nM)” value (“Activity (table III): Concentration” below) in the test with H-2 Kb cells is reported as “+ (^+ or *concentration of compound (I) >10 micro Molar)”.
For `O=c1[nH]c2scc(-c3ccc(C(F)(F)F)cc3)c2c(O)c1-c1ccccc1` [Compound 36], in that order: 121% and “* (^+ or *concentration of compound (I) >10 micro Molar)”.
As for `Cc1sc2[nH]c(=O)c(-c3ccccc3)c(O)c2c1-c1ccccc1` [Compound 10], the “activity: Ratio between the % of control” value in test [2] is reported as 96%. Moreover, the “Activity (table III): Concentration” value in the test on H-2 Kb cells is “* (^+ or *concentration of compound (I) >10 micro Molar)”.
Take `COc1ccc(-c2c(O)c3c(-c4ccc(F)cc4O)csc3[nH]c2=O)cc1` [Compound 191]: in test [2], the “activity: Ratio between the % of control” value is listed as 187%. In addition, in the test on H-2 Kb cells, the “Activity (table III): Concentration” value is “+ (^+ or *concentration of compound (I) >10 micro Molar)”.
The corresponding values for `O=c1[nH]c2scc(-c3ccc4ccccc4c3O)c2c(O)c1-c1ccccc1` [Compound 34] are 625% and “* (^+ or *concentration of compound (I) >10 micro Molar)”.
The corresponding values for `COc1cccc(-c2csc3[nH]c(=O)c(-c4ccccc4)c(O)c23)c1` [Compound 47] are 117% and “* (^+ or *concentration of compound (I) >10 micro Molar)”.
Consider `O=c1[nH]c2sc(Cl)c(-c3ccccc3F)c2c(O)c1-c1ccccc1` [Compound 119], for which the “activity: Ratio between the % of control” value in test [2] was 101%. For the same compound, the “Activity (table III): Concentration” value in the test with H-2 Kb cells is “* (^+ or *concentration of compound (I) >10 micro Molar)”.
The corresponding values for `O=c1[nH]c2sc(Cl)c(-c3ccc4ccccc4c3O)c2c(O)c1-c1ccccc1` [Compound 136] are 488% and “** (^++ or **concentration of compound (I) ≦10 micro Molar)”.
Regarding `Cc1cc(O)c(-c2c(Cl)sc3[nH]c(=O)c(-c4ccccc4)c(O)c23)cc1C` [Compound 207], the “activity: Ratio between the % of control” value in test [2] is recorded as 213%. Besides, the “Activity (table III): Concentration” value with H-2 Kb cells is “+ (^+ or *concentration of compound (I) >10 micro Molar)”.
The corresponding values for `O=c1[nH]c2sc(Cl)c(-c3ccc(F)c(F)c3O)c2c(O)c1-c1ccccc1` [Compound 208] are 131% and “+ (^+ or *concentration of compound (I) >10 micro Molar)”.
Turning to `COc1ccc(-c2c(O)c3c(-c4ccccc4)c(Cl)sc3[nH]c2=O)cc1` [Compound 157], the “activity: Ratio between the % of control” value in test [2] stood at 147%. Further, in the test with H-2 Kb cells, the “Activity (table III): Concentration” value is “** (^++ or **concentration of compound (I) ≦10 micro Molar)”.
For `Cc1ccc(-c2c(Cl)sc3[nH]c(=O)c(-c4ccccc4)c(O)c23)cc1C` [Compound 196], the “activity: Ratio between the % of control” value in test [2] is 165%. Also, in the test on H-2 Kb cells, the “Activity (table III): Concentration” value is on record as “++ (^++ or **concentration of compound (I) ≦10 micro Molar)”.
For `COc1c(-c2c(Cl)sc3[nH]c(=O)c(-c4ccccc4)c(O)c23)ccc(C)c1C` [Compound 201], in that order: 122% and “+ (^+ or *concentration of compound (I) >10 micro Molar)”.
For `Cc1sc2[nH]c(=O)c(-c3ccc(O)cc3)c(O)c2c1-c1ccccc1` [Compound 14], in that order: 116% and “* (^+ or *concentration of compound (I) >10 micro Molar)”.
With `COc1ccc(-c2c(Cl)sc3[nH]c(=O)c(-c4cccc(C#N)c4)c(O)c23)cc1` [Compound 129], the “activity: Ratio between the % of control” value in test [2] is 102%. For the same compound, in the test with H-2 Kb cells, the “Activity (table III): Concentration” value is recorded as “** (^++ or **concentration of compound (I) ≦10 micro Molar)”.
